# Results reported in US20240325398A1, “COMBINATION THERAPIES” (Infinity Pharmaceuticals, Inc., priority 2014, published 2024).
# Columns and labels:
# OCI-Ly3 = experiment: Combination study, ATPLite 72 h, dose matrix (Synergy Score, CI50); details: combination with Compound 1; OCI-Ly3; 72 h
# RL = experiment: as above; details: combination with Compound 1, 72 h
# HH = experiment: as above; type: cell-based; details: combination with Compound 1
# Protocol: The method is described as follows.
# Additive effect is CI=1.0. […] Antagonistic effect is CI>1.0.
# The Synergy Score is calculated as: […]
# RPMI-8226 = experiment: as above; details: combination with Compound 1
# DOHH-2 = experiment: as above; details: combination with Compound 1, 72 h
# SU-DHL-10-epst = experiment: as above; details: combination with Compound 1, 72 h
# [1] = as above; details: combination with Compound 1; OPM-2
# Protocol: (§1) Cells are thawed from a liquid nitrogen preserved state. Once cells have been expanded and divide at their expected doubling times, screening begins. Cells are seeded in growth media in either black 1536-well or 384-well tissue culture treated plates. Cells are then equilibrated in assay plates via centrifugation and placed in incubators attached to the Dosing Modules at 37° C. for 24 hours before treatment. […] These Tzero (To) plates are read using ultra-sensitive luminescence on Envision plate readers (Perkin Elmer). Treated assay plates are incubated with compound for 72 hours. After 72 hours, plates are developed for endpoint analysis using ATPLite. All data points are collected via automated processes, quality controlled and analyzed using Zalicus software.
# (§2) where T is treated cell count and V is untreated (vehicle) cell count (at 72 hours). I ranges from 0% (when T=V) to 100% (when T=0). […] The measure of effect in the experiment can be the inhibition of cellular response relative to the untreated level (vehicle alone). […] The inhibition ranges from 0% at the untreated level to 100% when T=0. Inhibition levels are negative for agents that actually increase levels. Other effect measures, such as an activity ratio r=T/V may be more appropriate for some assays. When activity ratios (e.g, fold increase over stimulated control) are being used, the effect can be measured using an induction 1=ln(T/V). With this definition, all effect expressions are the same as for inhibition.
# (§3) Growth Inhibition (GI) is used as a measure of cell viability. […] A GI reading of 100% represents complete growth inhibition—T72 compound-treated and T0 vehicle signals are matched. […] A GI reading of 200% represents complete death of all cells in the culture well. Compounds reaching an activity plateau of GI 200% are considered cytotoxic. GI is calculated by applying the following test and equation:
# (§4) Combination analysis data were collected in a 6×6 dose matrix. Synergy is calculated by comparing a combination's response to those of its single compound, against the drug-with-itself dose-additive reference model. Deviations from dose additivity may be assessed visually on an isobologram or numerically with a Combination Index (CI). […] Additive effect is CI=1.0. […] Antagonistic effect is CI>1.0.
# (§5) To measure combination effects in excess of Loewe additivity, a scalar measure to characterize the strength of synergistic interaction termed the Synergy Score is devised. The Synergy Score is calculated as:
# (§6) The fractional inhibition for each component agent and combination point in the matrix is calculated relative to the median of all vehicle-treated control wells. The Synergy Score equation integrates the experimentally-observed activity volume at each point in the matrix in excess of a model surface numerically derived from the activity of the component agents using the Loewe model for additivity. Additional terms in the Synergy Score equation (above) are used to normalize for various dilution factors used for individual agents and to allow for comparison of synergy scores across an entire experiment. The inclusion of positive inhibition gating or an Idata multiplier removes noise near the zero effect level, and biases results for synergistic interactions at that occur at high activity levels.
# (§7) Loewe Volume (Loewe Vol) is used to assess the overall magnitude of the combination interaction in excess of the Loewe additivity model. Loewe Volume is particularly useful when distinguishing synergistic increases in a phenotypic activity (positive Loewe Volume) versus synergistic antagonisms (negative Loewe Volume). […] This model defines additivity as a non-synergistic combination interaction where the combination dose matrix surface should be indistinguishable from either drug crossed with itself.
# OMP-2 = experiment: as above; details: combination with Compound 1; OPM-2
# Protocol: as §1, §2, §3, §4, §5, §6, §7
# HBL-1 = experiment: as above; details: combination with Compound 1, 72 h
# Farage = experiment: as above; details: combination with Compound 1; Farage; 72 h
# NCI-H929 = experiment: as above; details: combination with Compound 1
# TMD8 = experiment: as above; details: combination with Compound 1; TMD8; 72 h
# Protocol: as §1, §2, §3, §4
# The isobologram was drawn by identifying the locus of concentrations that correspond to crossing the indicated inhibition level. This is done by finding the crossing point for each single agent concentration in a dose matrix across the concentrations of the other single agent. Practically, each vertical concentration CY is held fixed while a bisection algorithm is used to identify the horizontal concentration CX in combination with that vertical dose that gives the chosen effect level in the response surface Z(CX,CY). These concentrations are then connected by linear interpolation to generate the isobologram display. For synergistic interactions, the isobologram contour fall below the additivity threshold and approaches the origin, and an antagonistic interaction would lie above the additivity threshold. The error bars represent the uncertainty arising from the individual data points used to generate the isobologram. The uncertainty for each crossing point is estimated from the response errors using bisection to find the concentrations where Z−αZ(CX,CY) and Z+σZ(CX,CY) cross Icut, where αZ is the standard deviation of the residual error on the effect scale.
# as §5
# The fractional inhibition for each component agent and combination point in the matrix is calculated relative to the median of all vehicle-treated control wells.
# Jeko-1 = experiment: as above; details: combination with Compound 1
# KARPAS-299 = experiment: as above; details: combination with Compound 1
# U-2932 = experiment: as above; details: combination with Compound 1, 72 h
# KARPAS-422 = experiment: as above; details: combination with Compound 1, 72 h
# GRANTA-519 = experiment: as above; details: combination with Compound 1
# Protocol: as §1, §2, §3, §4, §5, §6, §7
# OCI-Ly7 = experiment: as above; details: combination with Compound 1, 72 h
# Mino = experiment: as above; details: combination with Compound 1
# WSU-NHL = experiment: as above; details: combination with Compound 1, 72 h
# SU-DHL-4-epst = experiment: as above; details: combination with Compound 1, 72 h
compound,measurement,setting,value
"CC(C)C[C@H](NC(=O)[C@H](CCc1ccccc1)NC(=O)CN1CCOCC1)C(=O)N[C@@H](Cc1ccccc1)C(=O)N[C@@H](CC(C)C)C(=O)[C@@]1(C)CO1 [carfilzomib, (S)-4-methyl-N—((S)-1-(((S)-4-methyl-1-((R)-2-methyloxiran-2-yl)-1-oxopentan-2-yl)amino)-1-oxo-3-phenylpropan-2-yl)-2-((S)-2-(2-morpholinoacetamido)-4-phenylbutanamido)pentanamide]",CI50 growth inhibition,OCI-Ly3,U (U=0.7 to <1)
same,CI50 inhibition,OCI-Ly3,W (W=≥1)
same,Synergy Score growth inhibition,OCI-Ly3,A2 (A2=1 to <3)
same,Synergy Score inhibition,OCI-Ly3,A1 (A1=0.0001 to <1)
same,CI50 growth inhibition,RL,W (W=≥1)
same,CI50 inhibition,RL,W (W=≥1)
same,Synergy Score growth inhibition,RL,A1 (A1=0.0001 to <1)
same,Synergy Score inhibition,RL,A1 (A1=0.0001 to <1)
same,CI50 growth inhibition,HH,T (T=0.5 to <0.7)
same,CI50 inhibition,HH,T (T=0.5 to <0.7)
same,Synergy Score growth inhibition,HH,A3 (A3=>3)
same,Synergy Score inhibition,HH,A1 (A1=0.0001 to <1)
same,CI50 growth inhibition,RPMI-8226,U (U=0.7 to <1)
same,CI50 inhibition,RPMI-8226,W (W=≥1)
same,Synergy Score growth inhibition,RPMI-8226,A3 (A3=>3)
same,Synergy Score inhibition,RPMI-8226,A1 (A1=0.0001 to <1)
same,CI50 growth inhibition,DOHH-2,U (U=0.7 to <1)
same,CI50 inhibition,DOHH-2,U (U=0.7 to <1)
same,Synergy Score growth inhibition,DOHH-2,A3 (A3=>3)
same,Synergy Score inhibition,DOHH-2,A1 (A1=0.0001 to <1)
same,CI50 growth inhibition,SU-DHL-10-epst,U (U=0.7 to <1)
same,CI50 inhibition,SU-DHL-10-epst,U (U=0.7 to <1)
same,Synergy Score growth inhibition,SU-DHL-10-epst,A3 (A3=>3)
same,Synergy Score inhibition,SU-DHL-10-epst,A2 (A2=1 to <3)
same,CI50 growth inhibition,[1],U (U=0.7 to <1)
same,CI50 inhibition,OMP-2,U (U=0.7 to <1)
same,Synergy Score growth inhibition,OMP-2,A2 (A2=1 to <3)
same,Synergy Score inhibition,OMP-2,A1 (A1=0.0001 to <1)
same,CI50 growth inhibition,HBL-1,T (T=0.5 to <0.7)
same,CI50 inhibition,HBL-1,U (U=0.7 to <1)
same,Synergy Score growth inhibition,HBL-1,A1 (A1=0.0001 to <1)
same,Synergy Score inhibition,HBL-1,A1 (A1=0.0001 to <1)
same,CI50 growth inhibition,Farage,U (U=0.7 to <1)
same,CI50 inhibition,Farage,U (U=0.7 to <1)
same,Synergy Score growth inhibition,Farage,A3 (A3=>3)
same,Synergy Score inhibition,Farage,A1 (A1=0.0001 to <1)
same,CI50 growth inhibition,NCI-H929,U (U=0.7 to <1)
same,CI50 inhibition,NCI-H929,W (W=≥1)
same,Synergy Score growth inhibition,NCI-H929,A3 (A3=>3)
same,Synergy Score inhibition,NCI-H929,A1 (A1=0.0001 to <1)
same,CI50 growth inhibition,TMD8,U (U=0.7 to <1)
same,CI50 inhibition,TMD8,U (U=0.7 to <1)
same,Synergy Score growth inhibition,TMD8,A3 (A3=>3)
same,Synergy Score inhibition,TMD8,A2 (A2=1 to <3)
same,CI50 growth inhibition,Jeko-1,U (U=0.7 to <1)
same,CI50 inhibition,Jeko-1,U (U=0.7 to <1)
same,Synergy Score growth inhibition,Jeko-1,A1 (A1=0.0001 to <1)
same,Synergy Score inhibition,Jeko-1,A1 (A1=0.0001 to <1)
same,CI50 growth inhibition,KARPAS-299,W (W=≥1)
same,CI50 inhibition,KARPAS-299,W (W=≥1)
same,Synergy Score growth inhibition,KARPAS-299,A1 (A1=0.0001 to <1)
same,Synergy Score inhibition,KARPAS-299,A1 (A1=0.0001 to <1)
same,CI50 growth inhibition,U-2932,U (U=0.7 to <1)
same,CI50 inhibition,U-2932,U (U=0.7 to <1)
same,Synergy Score growth inhibition,U-2932,A2 (A2=1 to <3)
same,Synergy Score inhibition,U-2932,A2 (A2=1 to <3)
same,CI50 growth inhibition,KARPAS-422,T (T=0.5 to <0.7)
same,CI50 inhibition,KARPAS-422,U (U=0.7 to <1)
same,Synergy Score growth inhibition,KARPAS-422,A3 (A3=>3)
same,Synergy Score inhibition,KARPAS-422,A1 (A1=0.0001 to <1)
same,CI50 growth inhibition,GRANTA-519,T (T=0.5 to <0.7)
same,CI50 inhibition,GRANTA-519,W (W=≥1)
same,Synergy Score growth inhibition,GRANTA-519,A2 (A2=1 to <3)
same,Synergy Score inhibition,GRANTA-519,A1 (A1=0.0001 to <1)
same,CI50 growth inhibition,OCI-Ly7,W (W=≥1)
same,CI50 inhibition,OCI-Ly7,W (W=≥1)
same,Synergy Score growth inhibition,OCI-Ly7,A2 (A2=1 to <3)
same,Synergy Score inhibition,OCI-Ly7,A1 (A1=0.0001 to <1)
same,CI50 growth inhibition,Mino,U (U=0.7 to <1)
same,CI50 inhibition,Mino,U (U=0.7 to <1)
same,Synergy Score growth inhibition,Mino,A2 (A2=1 to <3)
same,Synergy Score inhibition,Mino,A1 (A1=0.0001 to <1)
same,CI50 growth inhibition,WSU-NHL,U (U=0.7 to <1)
same,CI50 inhibition,WSU-NHL,U (U=0.7 to <1)
same,Synergy Score growth inhibition,WSU-NHL,A2 (A2=1 to <3)
same,Synergy Score inhibition,WSU-NHL,A1 (A1=0.0001 to <1)
same,CI50 growth inhibition,SU-DHL-4-epst,U (U=0.7 to <1)
same,CI50 inhibition,SU-DHL-4-epst,U (U=0.7 to <1)
same,Synergy Score growth inhibition,SU-DHL-4-epst,A3 (A3=>3)
same,Synergy Score inhibition,SU-DHL-4-epst,A2 (A2=1 to <3)
